Test results reported in ChEMBL document CHEMBL3112457, “Inhibition of hypoxia-inducible factor prolyl hydroxylase domain oxygen sensors: tricking the body into mounting orchestrated survival and repair responses” (J Med Chem, 2013).

Experiments:
[1] = Inhibition of human CPH2 assessed as 2-Oxoglutarate conversion to succinic acid after 1 hr by radiometric HPLC analysis
Egl nine homolog 1 [2] = target: T1, Egl nine homolog 1 (Homo sapiens, UniProt Q9GZT9); assay: Inhibition of PHD2 (unknown origin) using P564 HIFlalpha as substrate after 1 hr by TR-FRET assay
Target sequence in this assay (Q9GZT9 whole entry): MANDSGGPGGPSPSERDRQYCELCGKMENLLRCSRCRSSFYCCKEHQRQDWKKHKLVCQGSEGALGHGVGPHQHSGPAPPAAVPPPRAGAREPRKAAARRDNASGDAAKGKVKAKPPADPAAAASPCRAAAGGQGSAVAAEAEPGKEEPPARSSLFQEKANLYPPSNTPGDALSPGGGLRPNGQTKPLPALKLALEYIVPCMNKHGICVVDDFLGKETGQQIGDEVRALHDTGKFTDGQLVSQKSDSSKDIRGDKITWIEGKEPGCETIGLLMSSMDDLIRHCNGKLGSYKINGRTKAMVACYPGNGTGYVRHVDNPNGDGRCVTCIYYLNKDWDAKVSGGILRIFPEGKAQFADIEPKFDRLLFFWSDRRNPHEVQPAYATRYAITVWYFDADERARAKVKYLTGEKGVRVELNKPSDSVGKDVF

Prolyl hydroxylase EGLN3 [3] = target: T2, Prolyl hydroxylase EGLN3 (Homo sapiens, UniProt Q9H6Z9); assay: Inhibition of PHD3 in human Hep3B cells assessed as stimulation of EPO release after 48 hrs by ELISA; format: cell-based, Hep 3B2
T2 sequence (Q9H6Z9 whole entry): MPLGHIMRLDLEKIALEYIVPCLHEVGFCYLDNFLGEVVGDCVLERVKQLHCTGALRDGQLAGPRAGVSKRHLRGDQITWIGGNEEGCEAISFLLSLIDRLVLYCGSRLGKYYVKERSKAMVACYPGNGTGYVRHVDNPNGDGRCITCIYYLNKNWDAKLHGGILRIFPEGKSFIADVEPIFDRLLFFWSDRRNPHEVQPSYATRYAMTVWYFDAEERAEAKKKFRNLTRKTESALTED

Prolyl hydroxylase EGLN3 [4] = target: T2, Prolyl hydroxylase EGLN3; assay: Inhibition of 6His-tagged PHD3 (1 to 239) (unknown origin)-mediated Cy5CODD hydroxylation expressed in Escherichia coli after 30 mins
[5] = Inhibition of human CPH1 assessed as 2-Oxoglutarate conversion to succinic acid after 1 hr by radiometric HPLC analysis
[6] = Inhibition of prolyl hydroxylase (unknown origin) using biotin-labeled DLDLEMLAPYIPMDDDFQL as substrate after 60 mins by FRET assay; design: species or system Homo sapiens
Egl nine homolog 1 [7] = target: T1, Egl nine homolog 1; assay: Inhibition of FLAG-tagged full length PHD2 (unknown origin) expressed in Sf9 cells using HIF-1alpha peptide as substrate preincubated for 30 mins followed by substrate addition measured after 2 hrs by HTRF assay in presence of 2-oxoglutarate
Target sequence in this assay (Q9GZT9 whole entry): as the sequence (Q9GZT9 whole entry) above

Egl nine homolog 1 [8] = target: T1, Egl nine homolog 1; assay: Inhibition of HIF-PH2 (unknown origin) expressed in insect Hi5 cells using [methoxycoumarin]-DLDLEALAPYIPADDDFQL-amide as substrate at 22.2 uM by [14]CO2 capture assay relative to control; conditions: BTI-TN-5B1-4
Target sequence in this assay (Q9GZT9 2-426 limits assumed): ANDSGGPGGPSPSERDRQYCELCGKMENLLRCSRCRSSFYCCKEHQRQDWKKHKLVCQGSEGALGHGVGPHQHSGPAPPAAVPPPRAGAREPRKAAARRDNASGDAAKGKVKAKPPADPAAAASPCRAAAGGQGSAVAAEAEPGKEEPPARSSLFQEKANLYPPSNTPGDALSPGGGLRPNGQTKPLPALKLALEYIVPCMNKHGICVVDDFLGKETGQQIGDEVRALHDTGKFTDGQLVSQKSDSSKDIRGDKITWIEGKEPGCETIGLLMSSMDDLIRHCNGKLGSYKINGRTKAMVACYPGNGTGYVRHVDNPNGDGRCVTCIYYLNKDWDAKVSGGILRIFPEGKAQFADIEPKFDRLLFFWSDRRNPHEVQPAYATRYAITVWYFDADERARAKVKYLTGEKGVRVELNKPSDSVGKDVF

Homo sapiens = species on record: Homo sapiens; assay: Inhibition of prolyl hydroxylase (unknown origin) assessed as stimulation of EPO release by cell-based assay
Egl nine homolog 1 [9] = target: T1, Egl nine homolog 1; assay: Inhibition of PHD2 (unknown origin)
Target sequence in this assay (Q9GZT9 whole entry): as the sequence (Q9GZT9 whole entry) above

Prolyl hydroxylase EGLN3 [10] = target: T2, Prolyl hydroxylase EGLN3; assay: Inhibition of 6His-tagged PHD3 (1 to 239) (unknown origin)-mediated Cy5CODD hydroxylation expressed in Escherichia coli preincubated for 3 mins followed by substrate addition measured after 30 mins
[11] = Inhibition of prolyl hydroxylase in human Hep3B cells assessed as stimulation of EPO release at 100 uM after 24 hrs by ELISA relative to control; format: cell-based, Hep 3B2
Hep 3B2 = assay: Inhibition of prolyl hydroxylase in human Hep3B cells assessed as stimulation of EPO release at 100 uM after 24 hrs relative to control; format: cell-based; design: scale not given: the % may be the effect or the level left

Cn1c(=O)c(C(=O)CCC(=O)O)c(O)c2ccc(Br)cc21
IC50 [1]: 13000 nM

Cn1c(=O)c(C(=O)NCC(=O)O)c(O)c2ccc(-c3cccnc3)nc21
IC50 (Egl nine homolog 1 [2]): < 50 nM

CC(C)(C)c1ccc(Cn2c(-c3c(Cl)cccc3Cl)nc(O)c(C(=O)NCC(=O)O)c2=O)cc1
EC50 (Prolyl hydroxylase EGLN3 [3]): 400 nM | IC50 (Prolyl hydroxylase EGLN3 [4]): 0.8 nM

Cn1c(=O)c(C(=O)NCC(=O)O)c(O)c2ccc(Br)cc21
IC50 [1]: 111 nM | IC50 [5]: 351 nM

N#Cc1cn(-c2c[nH]n(-c3cc(N4CC(F)(F)C4)ncn3)c2=O)nn1
IC50 [6]: 70 nM

O=C(Cc1ccc2ccccc2c1)Nc1cnc(-n2cccn2)nc1O
IC50 (Egl nine homolog 1 [7]): 0.7 nM

O=C(O)CNC(=O)c1nc(-c2cn(Cc3ccccc3)nn2)c2snc(-c3ccc(Cl)cc3)c2c1O
inhibition (Egl nine homolog 1 [8]): 100%

O=C(O)CNC(=O)c1c(O)c(C(=O)NCc2ccccc2)cn(Cc2ccccc2)c1=O
EC50 (Prolyl hydroxylase EGLN3 [3]): 1 nM

O=C(O)CNC(=O)C1=C(O)c2ccccc2C1=O
IC50 (Egl nine homolog 1 [2]): 3 nM

O=C(O)c1cnn(-c2nc3cc(OC(F)(F)F)c(Cl)cc3[nH]2)c1
A50 (Homo sapiens): 50 µM | IC50 (Egl nine homolog 1 [9]): 100 nM

O=C(O)CNC(=O)c1c(O)c2c(n(CC3Cc4ccccc4C3)c1=O)COC2
IC50 (Egl nine homolog 1 [7]): < 10 nM

O=C(O)CNC(=O)c1c(O)c(-c2cccnc2)cc2nccnc12
IC50 (Prolyl hydroxylase EGLN3 [10]): 1 nM | EC50 (Prolyl hydroxylase EGLN3 [3]): 100 nM

O=C(O)CNC(=O)c1c(O)n2ccccc2nc1=O
EC50 (Prolyl hydroxylase EGLN3 [3]): > 10000 nM

O=C(O)CNC(=O)c1c(O)cc(-c2cc(F)cc(Cl)c2)c2ncnn12
EC50 [11]: 5900 nM

O=C(O)c1cnn(-c2nc(N3CCCC3)c3cc(Oc4ccc(Cl)cc4)ccc3n2)c1
Activity (Hep 3B2): 96%

Cc1c(O)c(C(=O)NCC(=O)O)c(=O)n(Cc2ccccc2)c1C
EC50 (Prolyl hydroxylase EGLN3 [3]): > 10000 nM

COc1ccc(-n2c(=S)[nH]c3cc(C(=O)NCc4ccc(Cl)cc4)sc3c2=O)nc1OC
IC50 (Prolyl hydroxylase EGLN3 [10]): 1 nM | EC50 (Prolyl hydroxylase EGLN3 [3]): 1000 nM

CC(C)(C)c1ccc(Cn2nc(-c3ccc(Cl)cc3)c(O)c(C(=O)NCC(=O)O)c2=O)cc1
EC50 (Prolyl hydroxylase EGLN3 [3]): 400 nM | IC50 (Prolyl hydroxylase EGLN3 [4]): 0.8 nM

COc1ccc(-n2c(=S)[nH]c3sc(C(=O)NCc4ccc(Cl)cc4)c(C)c3c2=O)nc1OC
IC50 (Prolyl hydroxylase EGLN3 [10]): 1 nM | EC50 (Prolyl hydroxylase EGLN3 [3]): 1000 nM

Cn1c(=O)c(C(=O)NCC(=O)O)c(O)c2sccc21
IC50 (Egl nine homolog 1 [2]): 3 nM

O=C(O)CNC(=O)c1c(O)c2ccc(F)cc2n(Cc2ccccc2Cl)c1=O
IC50 (Prolyl hydroxylase EGLN3 [4]): 20 nM

O=C(O)CNC(=O)c1c2ncn(Cc3ccccc3)c2cc2c1ncn2Cc1ccccc1
IC50 (Prolyl hydroxylase EGLN3 [10]): 1 nM
